Results published in article PMC9926489, “Chemical Optimization of Selective Pseudomonas aeruginosa LasB Elastase Inhibitors and Their Impact on LasB-Mediated Activation of IL-1β in Cellular and Animal Infection Models” (ACS Infectious Diseases, 2023).

Tests used:
[1] = target: T1, LasB (P. aeruginosa PAO1 culture supernatant) (Pseudomonas aeruginosa, UniProt P14756); test: Elastin Congo Red (ECR) assay, elastin hydrolysis by dialyzed PAO1 culture supernatant; assay type: biochemical; conditions: 25 μM inhibitor
T1 construct: The mature LasB protein is a 33 kDa metalloprotease, which is secreted from P. aeruginosa; endogenous in cells; host or cells: P. aeruginosa PAO1 culture supernatant, filtered and dialyzed
Excerpt: This was chosen as the starting point for a medicinal chemistry-driven lead optimization program aiming to improve potency and solubility whilst retaining selectivity against host metalloenzymes. All synthesized compounds were initially assessed in a fluorimetric assay measuring hydrolysis of a fluorogenic substrate Abz-Ala-Gly-Leu-Ala-4-nitrobenzylamide (Abz-AGLA-Nba) by purified LasB and IC50 values determined (Tables 1 and 2). Inhibition of elastin hydrolytic activity was confirmed using an orthogonal assay measuring hydrolysis of Elastin Congo Red (ECR) complex by LasB prepared directly from a P. aeruginosa culture supernatant (Tables 1 and 2). […] Aqueous solubility was determined for most compounds (Tables 1 and 2).
Inhibition of elastin hydrolysis by native LasB, secreted in P. aeruginosa culture supernatants, was measured using the Elastin Congo Red (ECR) assay. Culture supernatants from P. aeruginosa strain PAO1, grown in LB medium at 37 °C for 24 h, were filtered and dialyzed against 50 mM Tris-HCl pH 7.4, 2.5 mM CaCl2 solution at 4 °C and supplemented with 0.01%Triton X-100, 10 mg/mL ECR (Sigma) and 25 μM inhibitor compounds. The reaction mixture was incubated for 16 h at 37 °C with shaking before centrifugation and recovery of the supernatant and measurement of solubilized congo red by absorbance (OD495) using an EnSight multimode plate reader (PerkinElmer).

[2] = target: T2, LasB N68S, T120I, A122T, S241G, S436L (Pseudomonas aeruginosa, UniProt P14756, S241G/S436L); test: LasB variant inhibition, culture supernatant: N68S, T120I, A122T, S241G, S436L; assay type: biochemical, P. aeruginosa
T2 construct: Most changes were identified in the mature peptide, however some occurred in the propeptide domain; endogenous in cells; host or cells: P. aeruginosa clinical CF isolate, culture supernatant
Excerpt: Compounds 12 and 16 were discovered as a result of optimizing potency against the LasB protein expressed from the wild-type (WT) reference strain P. aeruginosa PAO1. To understand the relative prevalence of the WT LasB protein versus other variants in clinical respiratory P. aeruginosa strains, the full-length lasB gene was amplified by PCR from 255 clinical isolates (obtained from CF sputum samples). […] Most changes were identified in the mature peptide, however some occurred in the propeptide domain, which could affect LasB processing (marked in italics in Table 4).
LasB inhibition assays were performed using purified LasB enzyme (1 ng/well) for compound screening or using culture supernatants (prepared as described in the ECR assay) for testing LasB variants. Hydrolysis of the fluorogenic peptide substrate 2-aminobenzoyl-Ala-Gly-Leu-Ala-4-nitrobenzylamide (Abz-AGLA-Nba; Peptide International) in 50 mM Tris-HCl (pH 7.4), supplemented with 2.5 mM CaCl2 was followed using an Envision microplate reader (PerkinElmer) at 315 nm excitation and 430 nm emission. […] IC50 values were determined from Hill plots using Dotmatics Studies ELN software. For the mechanism of inhibition studies, hydrolysis rates were measured in the presence of variable concentrations of substrate and inhibitor, and the inhibition constant (Ki) was determined using Dixon plot analysis.[31]

[3] = test system: P. aeruginosa PAO1; test: Mouse P. aeruginosa lung infection model, bacterial numbers (CFUs) in lung homogenates; assay type: in vivo; conditions: C57Bl/6 mice, 24 h
Method: To investigate if compounds 12 and 16 were able to engage the LasB target in vivo, in the context of a P. aeruginosa lung infection, and to determine the consequences of that inhibition, immunocompetent C57Bl/6 mice were infected intranasally with P. aeruginosa PAO1 and treated with two doses of inhibitors, 10 and 30 mg/kg, administered IV at 1 and 4 h post-infection (Figure 5A). A control group of PAO1-infected animals treated with vehicle and a group of animals infected with the isogenic ΔlasB strain were included in the study. Mice were euthanized 24 h post-infection and their lung homogenates assayed for activated mature IL-1β (using the IL-1 reporter assay) and bacterial numbers (by CFU enumeration).
Infection experiments were approved by the Institutional Animal Care and Use Committee of Emory University. To prepare the bacterial inoculum, P. aeruginosa PAO1 (or its ΔlasB derivative) was grown in Luria broth with shaking at physiologic (37 °C) temperature for 18 h to maximally express LasB (at late log phase). Bacteria were then harvested, washed, and diluted in sterile phosphate-buffered saline (PBS) for delivery of 10^9 colony-forming units (CFUs) in 40 μL. For infection, female C57Bl/6 mice (five/group) were sedated using isofluorane and the bacterial suspension was slowly administered via micropipette between the nostrils and the animals were allowed to aspirate the inoculum via the normal breathing process. Compounds 12 and 16 were administered in PBS via injection (100 μL volume) to achieve doses of 10 and 30 mg/kg. The mice were euthanized 24 h post-infection and the lungs were excised. Active IL-1β was quantified by adding 100 μL of cell-free homogenate to IL-1β responsive HEK IL-1R-lux reporter cells. Activity was assayed by luminescence measured with D-luciferin substrate (Steady-Luc, Biotium) on a multimode reader (PerkinElmer) and expressed as relative luminescence units (RU). CFU was enumerated by dilution plating on Luria agar. Statistics were calculated by ANOVA with a Dunnett post-test.

[4] = Plasma protein binding by equilibrium dialysis; assay type: in vitro ADME; conditions: mouse plasma, 10 μM compound; read-out: PPB (mouse) % bound (converted)
Method: Mouse plasma protein binding (PPB) was determined by equilibrium dialysis with 10 μM compound over 4 h at 37 °C. Compound recoveries were determined by HPLC-MS/MS.

[5] = 30 mg/kg IV at 1 and 4 h post-infection

T2 sequence (P14756 198-498, looked up, stated change not applied): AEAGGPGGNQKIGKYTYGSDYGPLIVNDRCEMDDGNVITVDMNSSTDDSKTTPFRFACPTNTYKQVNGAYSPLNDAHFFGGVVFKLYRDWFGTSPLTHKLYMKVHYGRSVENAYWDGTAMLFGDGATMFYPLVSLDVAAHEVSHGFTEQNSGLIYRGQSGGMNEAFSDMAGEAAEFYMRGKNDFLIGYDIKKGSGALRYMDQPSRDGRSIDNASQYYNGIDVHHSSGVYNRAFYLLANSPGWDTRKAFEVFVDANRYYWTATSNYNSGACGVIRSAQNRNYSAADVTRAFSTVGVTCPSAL
T1 sequence (P14756 198-498): as the sequence (P14756 198-498, looked up, stated change not applied) above

Structure (SMILES)	Elastin hydrolysis @ 25 μM (% inh) [1]	IC50 [2]	log reduction in bacterial numbers (CFUs) in lung [3, 5]	fraction unbound at 4 h, 10 μM [4]	log reduction in bacterial numbers (CFUs) in lung ([3]; 10 mg/kg IV at 1 and 4 h post-infection)
COc1cc2sc(CNC(=O)C3(CC(=O)O)Cc4cc(F)c(F)cc4C3)nc2cc1OCCC[N+](C)(CCO)CCO [Compound 16]	73 % inh	253 nM	0.47 log	0.18	
COc1cc2sc(CNC(=O)C3(CC(=O)O)Cc4ccccc4C3)nc2cc1OCCC[N+](C)(C)C [Compound 12]	64 % inh	267 nM	0.69 log	0.24	0.48 log
